Measurements as given in patent US8389550B2, “Isoxazoles / O-pyridines with ethyl and ethenyl linker” (Hoffmann-La Roche Inc., priority 2009, dated 2013).

target: T1, human GABA A α5 receptor (α5β3γ2) (Homo sapiens, UniProt P18507+P31644); experiment: [3H]flumazenil competition binding assay, HEK293 cells expressing human receptors; conditions: displacement of [3H]flumazenil (0.5 nM); HEK293 cells transiently expressing human α5β3γ2; means of two determinations; read-out: hKi GABA A α5
T1 construct: expressed in transfected cells; host or cells: HEK293 cells, transiently transfected; membranes prepared from cell pellets
Description: Membrane Preparation and Binding Assay
The affinity of compounds at GABA A receptor subtypes was measured by competition for [3H]flumazenil (85 Ci/mmol; Roche) binding to HEK293 cells expressing rat (stably transfected) or human (transiently transfected) receptors of composition α1β3γ2, α2β3γ2, α3β3γ2 and α5β3γ2.
Cell pellets were suspended in Krebs-tris buffer (4.8 mM KCl, 1.2 mM CaCl2, 1.2 mM MgCl2, 120 mM NaCl, 15 mM Tris; pH 7.5; binding assay buffer), homogenized by polytron for ca. 20 sec on ice and centrifuged for 60 min at 4° C. (50000 g; Sorvall, rotor: SM24=20000 rpm). The cell pellets were resuspended in Krebs-tris buffer and homogenized by polytron for ca. 15 sec on ice. Protein was measured (Bradford method, Bio-Rad) and aliquots of 1 mL were prepared and stored at −80° C.
Radioligand binding assays were carried out in a volume of […] (96-well plates) which contained […] of cell membranes, [3H]flumazenil at a concentration of 1 nM for α1, α2, α3 subunits and 0.5 nM for α5 subunits and the test compound in the range of […]. Nonspecific binding was defined by 10^−5 M diazepam and typically represented less than 5% of the total binding. Assays were incubated to equilibrium for 1 hour at 4° C. and harvested onto GF/C uni-filters (Packard) by filtration using a Packard harvester and washing with ice-cold wash buffer (50 mM Tris; pH 7.5). After drying, filter-retained radioactivity was detected by liquid scintillation counting. Ki values were calculated using Excel-Fit (Microsoft) and are the means of two determinations.
Representative test results, obtained by the above described assay measuring binding affinity to HEK293 cells expressing human (h) receptors, are shown in table 1 below: […]

SMILES	Ki
COC(=O)c1ccc(/C=C/c2c(-c3ccccc3)noc2C)nc1 [Example 1, 6-[(E)-2-(5-Methyl-3-phenyl-isoxazol-4-yl)-vinyl]nicotinic acid methyl ester]	13.9 nM
Cc1onc(-c2ccccc2)c1/C=C/c1ccc(C(=O)NC(C)C)cn1 [Example 2, N-Isopropyl-6-[(E)-2-(5-methyl-3-phenyl-isoxazol-4-yl)-vinyl]-nicotinamide]	5 nM
Cc1onc(-c2ccccc2)c1/C=C/c1ccc(C(=O)NC2CCOCC2)cn1 [Example 3, 6-[(E)-2-(5-Methyl-3-phenyl-isoxazol-4-yl)-vinyl]-N-(tetrahydro-pyran-4-yl)-nicotinamide]	6 nM
Cc1onc(-c2ccccc2)c1/C=C/c1ccc(C(=O)NCCO)cn1 [Example 4, N-(2-Hydroxy-ethyl)-6-[(E)-2-(5-methyl-3-phenyl-isoxazol-4-yl)-vinyl]-nicotinamide]	2 nM
Cc1onc(-c2ccccc2)c1/C=C/c1ccc(C(=O)NC(C)CO)cn1 (stereo not drawn) [Example 5, N-(2-Hydroxy-1-methyl-ethyl)-6-[(E)-2-(5-methyl-3-phenyl-isoxazol-4-yl)-vinyl]-nicotinamide]	2.9 nM
Cc1onc(-c2ccccc2)c1/C=C/c1ccc(C(=O)O)cn1 [Example 6, 6-[(E)-2-(5-Methyl-3-phenyl-isoxazol-4-yl)-vinyl]-nicotinic acid]	38.6 nM
CCCCc1noc(C)c1/C=C/c1ccc(C(=O)OC)cn1 [Example 7, 6-[(E)-2-(3-Butyl-5-methyl-isoxazol-4-yl)-vinyl]nicotinic acid methyl ester]	8.1 nM
CCCCc1noc(C)c1/C=C/c1ccc(C(=O)NC(C)C)cn1 [Example 8, 6-[(E)-2-(3-Butyl-5-methyl-isoxazol-4-yl)-vinyl]-N-isopropyl-nicotinamide]	18.6 nM
CCCCc1noc(C)c1/C=C/c1ccc(C(=O)NC2CCOC2)cn1 (stereo not drawn) [Example 9, 6-[(E)-2-(3-Butyl-5-methyl-isoxazol-4-yl)-vinyl]-N-(tetrahydro-furan-3-yl)-nicotinamide]	8.9 nM
CCCCc1noc(C)c1/C=C/c1ccc(C(=O)NC(C)CO)cn1 (stereo not drawn) [Example 10, 6-[(E)-2-(3-Butyl-5-methyl-isoxazol-4-yl)-vinyl]-N-(2-hydroxy-1-methyl-ethyl)-nicotinamide]	8.2 nM
CCCCc1noc(C)c1/C=C/c1ccc(C(=O)NCC(C)(C)O)cn1 [Example 11, 6-[(E)-2-(3-Butyl-5-methyl-isoxazol-4-yl)-vinyl]-N-(2-hydroxy-2-methyl-propyl)-nicotinamide]	16.3 nM
CCCCc1noc(C)c1/C=C/c1ccc(C(=O)NC2CCOCC2)cn1 [Example 12, 6-[(E)-2-(3-Butyl-5-methyl-isoxazol-4-yl)-vinyl]-N-(tetrahydro-pyran-4-yl)-nicotinamide]	12.9 nM
CCCCc1noc(C)c1/C=C/c1ccc(C(=O)N[C@H](C)CO)cn1 [Example 13, 6-[(E)-2-(3-Butyl-5-methyl-isoxazol-4-yl)-vinyl]-N—((R)-2-hydroxy-1-methyl-ethyl)-nicotinamide]	12.2 nM
CCCCc1noc(C)c1/C=C/c1ccc(C(=O)N[C@@H](C)CO)cn1 [Example 14, 6-[(E)-2-(3-Butyl-5-methyl-isoxazol-4-yl)-vinyl]-N—((S)-2-hydroxy-1-methyl-ethyl)-nicotinamide]	14.1 nM
CCCCc1noc(C)c1/C=C/c1ccc(C(=O)NC(CO)CO)cn1 [Example 15, 6-[(E)-2-(3-Butyl-5-methyl-isoxazol-4-yl)-vinyl]-N-(2-hydroxy-1-hydroxymethyl-ethyl)-nicotinamide]	5.3 nM
Cc1onc(-c2ccccc2)c1CCc1ccc(C(=O)NC(C)C)cn1 [Example 16, N-Isopropyl-6-[2-(5-methyl-3-phenyl-isoxazol-4-yl)-ethyl]-nicotinamide]	57.6 nM
CCCCc1noc(C)c1CCc1ccc(C(=O)NC(C)CO)cn1 (stereo not drawn) [Example 17, 6-[2-(3-Butyl-5-methyl-isoxazol-4-yl)-ethyl]-N-(2-hydroxy-1-methyl-ethyl)-nicotinamide]	49.4 nM
CCCCc1noc(C)c1CCc1ccc(C(=O)NC2CCOC2)cn1 (stereo not drawn) [Example 18, 6-[2-(3-Butyl-5-methyl-isoxazol-4-yl)-ethyl]-N-(tetrahydro-furan-3-yl)-nicotinamide]	58.6 nM
